Values quoted from earlier work as cited in US9834484B1, “Plant enhancer and a method of using the same” (priority 2016, dated 2017).

Test system: tumor growth
Conditions: some studies show

In the case of β-glucan, the inhibits tumor growth is given as “more than 95%”.
